In patent publication US11147796B2, “Agent for preventing or ameliorating hearing impairment” (Tohoku University, priority 2017, dated 2021):

Tested on: “m.1555A>G mutant” cells
Assay: Amount of ATP production in cells derived from hearing loss patients
Format: cell-based, human
Conditions: compound 10 μM, 12 hours
Description: In the following Examples 2, 3, and 5, “m.1555A>G mutant” cells were obtained by skin reproductive to a patient having “m.1555A>G mutation” to obtain dermal fibroblasts, then 10% Primary culture was carried out in DMEM (low glucose) culture solution (manufactured by Nacalai Tesque, Inc) containing FBS (Fetal bovine serum) under the condition of 5% CO2/20% O2, at 37° C. and isolated. In the following Examples 4 and 5, the inner ear culture was carried out in DMEM (high glucose) culture medium containing 10% FBS (Fetal bovine serum) under the condition of 5% CO2/20% O2, at 37° C.
[1] Three thousand “m.1555A>G mutant” cells were seeded per well in a 96-well cell culture plate and cultured for 24 hours.
[2] Compound #5 synthesized in Example 1 was mixed into the culture solution to be 10 μM and cultured for 12 hours (compound-treated group). As a control, “m.1555A>G mutant” cells were cultured in a culture medium in the absence of compound #5 (control group) or in a culture medium containing 0.01% DMSO (DMSO-treated group) for 12 hours. The concentration of ATP in the culture solution was measured with “cellular” ATP assay reagent (manufactured by Toyo Binet).

With `O=C(CC(C(=O)O)c1c[nH]c2ccccc12)c1ccc(F)cc1F` (stereo not shown) [compound #5, 4-(2,4-Difluorophenyl)-2-(1H-indol-3-yl)-4-oxo-butanoic Acid] the “amount of ATP production” value was “increases”.
